Assays:
[1] = Stability in CD-1 mouse microsomes assessed as intrinsic clearance measured upto 40 mins in presence of NADP; assay type: ADME, Microsome
[2] = (§1) Cytotoxicity against Cynomolgous monkey hepatocytes harboring Simian virus assessed as reduction in cell viability administered for 3 hrs followed by replacement with fresh medium containing compound for every 24 hrs by DAPI staining based analysis; assay type: toxicity, Macaca fascicularis, Hepatocyte; settings: cynomolgus monkey
[3] = system: Plasmodium berghei; assay: as §1, with “Antiplasmodial activity” for “Cytotoxicity”, “against hepatic stage of Plasmodium berghei ANKA sporozoites infected in” for “against”, “parasite growth” for “cell viability”; assay type: functional, organism-based; settings: Hepatocyte
[4] = Stability in CD-1 mouse microsomes assessed as half-life in presence of NADP; assay type: ADME, Microsome
[5] = system: Plasmodium falciparum; assay: Antiplasmodial activity against erythrocytic stage of chloroquine, pyrimethamine and sulfadoxine resistant Plasmodium falciparum K1 infected in human erythrocytes assessed as reduction in parasite growth incubated for 72 hrs by SYBR green I fluorescence based spectrophotometric analysis; assay type: functional, organism-based; settings: K1, Erythrocyte
[6] = Selectivity index, ratio of CC50 for cytotoxicity against human HepG2 cells to EC50 for antiplasmodial activity against erythrocytic stage of chloroquine, pyrimethamine and sulfadoxine resistant Plasmodium falciparum K1 infected in human erythrocytes; assay type: toxicity, cell-based; settings: read-out: Ratio CC50/EC50
[7] = Cytotoxicity against human HepG2 cells assessed as reduction in cell viability incubated for 72 hrs by MTT assay; assay type: toxicity, cell-based
[8] = Solubility of compound in DMSO; assay type: physicochemical
[9] = target: Voltage-gated inwardly rectifying potassium channel KCNH2 (Homo sapiens, UniProt Q12809); assay: Inhibition of hERG incubated for 4 hrs by fluorescence polarization assay; assay type: toxicity
[10] = Solubility of compound in PBS at 1 mg incubated for 10 mins by HPLC analysis; assay type: physicochemical
[11] = Chromatographic hydrophobicity index, log D of the compound at pH 7.4 by HPLC analysis; assay type: physicochemical; settings: buffer
[12] = Effective permeability of compound at pH 5 incubated for 4 hrs by PAMPA-GIT assay; assay type: ADME; settings: read-out: Peff
[13] = Effective permeability of compound at pH 7.4 incubated for 4 hrs by PAMPA-GIT assay; assay type: ADME; settings: read-out: Peff

Chain of Voltage-gated inwardly rectifying potassium channel KCNH2 (Q12809 whole entry): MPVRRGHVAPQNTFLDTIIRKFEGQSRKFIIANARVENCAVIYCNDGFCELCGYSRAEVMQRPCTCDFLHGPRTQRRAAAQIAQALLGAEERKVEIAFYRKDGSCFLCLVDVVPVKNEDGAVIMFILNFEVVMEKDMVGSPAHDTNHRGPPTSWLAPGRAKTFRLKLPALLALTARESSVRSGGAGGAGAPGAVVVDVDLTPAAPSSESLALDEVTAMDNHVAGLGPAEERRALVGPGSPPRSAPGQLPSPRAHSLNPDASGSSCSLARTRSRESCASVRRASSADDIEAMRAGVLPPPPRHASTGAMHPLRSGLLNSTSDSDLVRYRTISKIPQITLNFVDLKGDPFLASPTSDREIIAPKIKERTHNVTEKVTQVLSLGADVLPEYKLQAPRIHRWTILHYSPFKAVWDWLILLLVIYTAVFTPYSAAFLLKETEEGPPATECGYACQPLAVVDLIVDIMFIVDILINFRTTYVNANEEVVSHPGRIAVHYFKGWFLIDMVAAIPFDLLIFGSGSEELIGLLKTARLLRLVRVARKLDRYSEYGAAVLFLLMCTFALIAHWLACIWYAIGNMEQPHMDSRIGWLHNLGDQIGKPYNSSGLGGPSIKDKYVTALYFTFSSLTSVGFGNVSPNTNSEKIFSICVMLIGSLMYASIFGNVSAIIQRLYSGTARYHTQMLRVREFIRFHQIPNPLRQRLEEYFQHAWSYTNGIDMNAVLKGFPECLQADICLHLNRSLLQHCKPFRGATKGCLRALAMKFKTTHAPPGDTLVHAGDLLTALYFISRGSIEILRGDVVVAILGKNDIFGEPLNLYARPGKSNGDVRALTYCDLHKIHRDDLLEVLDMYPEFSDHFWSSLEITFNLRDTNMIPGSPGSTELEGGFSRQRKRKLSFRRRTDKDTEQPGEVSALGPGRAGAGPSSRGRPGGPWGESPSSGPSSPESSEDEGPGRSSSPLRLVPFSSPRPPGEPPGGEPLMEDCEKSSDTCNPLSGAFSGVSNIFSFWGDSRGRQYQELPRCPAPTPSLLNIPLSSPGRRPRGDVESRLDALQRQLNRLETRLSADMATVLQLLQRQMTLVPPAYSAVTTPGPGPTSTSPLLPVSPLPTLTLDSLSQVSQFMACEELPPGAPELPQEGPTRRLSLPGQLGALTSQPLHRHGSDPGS

SMILES	CC50 at 3 h [2] [µM]	EC50 [3] [µM]	EC50 [5] [µM]	selectivity ratio [6]	CC50 at 72 h [7] [µM]	other results
Cc1ccc(-c2cc3nc(NC(C)C)[nH]c(=O)c3s2)cc1	> 200	55.6				microsomal CLint [1]: 214 µL/min/mg; half-life [4]: 11 min
Cc1ccc(-c2cc3nc(N)n(CCCN(C)C)c(=O)c3s2)cc1			9.8	0.42	4.1	
Cc1ccc(-c2cc3nc(NC4CC4)[nH]c(=O)c3s2)cc1	> 100	5.5	0.9	4.4	4	microsomal CLint [1]: 136 µL/min/mg; half-life [4]: 15 min
Cc1ccc(-c2cc3nc(N4CCN(C)CC4)[nH]c(=O)c3s2)cc1			> 25	< 0.3	8.7	
Cc1ccc(-c2cc3nc(N4CCCCC4)[nH]c(=O)c3s2)cc1			> 25		> 3.1	
Cc1ccc(-c2cc3nc(N4CCC4)[nH]c(=O)c3s2)cc1						solubility [8]: Insoluble
Cc1ccc(-c2cc3nc(N[C@H]4CCNC4)[nH]c(=O)c3s2)cc1			> 31.2	< 0.4	13.2	
[2H]C([2H])([2H])C(Nc1nc2cc(-c3ccc(C)cc3)sc2c(=O)[nH]1)C([2H])([2H])[2H]	> 100	15.9	0.2	> 50	> 10	microsomal CLint [1]: 214 µL/min/mg; half-life [4]: 11 min
CCn1c(NC(C)(C)C)nc2cc(-c3ccc(C)cc3)sc2c1=O			> 12.5	1.4	5.8	
Cc1ccc(-c2cc3nc(NC(C)(C)C)n(C(C)C)c(=O)c3s2)cc1			4.2	> 0.9	> 3.9	
Cc1ccc(-c2cc3nc(N4CCCC4)[nH]c(=O)c3s2)cc1	> 200	> 100	1.4	> 2.1	> 3.1	
Cc1ccc(-c2cc3nc(NC4CCCCC4)[nH]c(=O)c3s2)cc1			> 12.5		> 12.5	
Cc1ccc(-c2cc3nc(NC(C)(C)C(F)(F)F)[nH]c(=O)c3s2)cc1			> 10	> 10	23.9	
Cc1ccc(-c2cc3nc(NC4CCCC4)[nH]c(=O)c3s2)cc1	> 100	10.5	1.4	> 5.6	> 7.8	microsomal CLint [1]: 58 µL/min/mg; half-life [4]: 38 min
Cc1ccc(-c2cc3nc(N4CCOCC4)[nH]c(=O)c3s2)cc1			> 10	< 0.4	3.6	
[2H]C([2H])([2H])C(Nc1nc2cc(-c3ccc(C)cc3)sc2c(=O)[nH]1)(C([2H])([2H])[2H])C([2H])([2H])[2H]	> 100	13.7	0.1	149	17.9	microsomal CLint [1]: 209 µL/min/mg; half-life [4]: 8.5 min
Cc1ccc(-c2cc3nc(NC(C)(C)C)n(-c4ccccc4)c(=O)c3s2)cc1			> 12.5		> 3.1	
Cc1ccc(-c2cc3nc(NC4CCC4)[nH]c(=O)c3s2)cc1	> 100	11.2	1.1	12.7	14	microsomal CLint [1]: 78 µL/min/mg; half-life [4]: 29 min
Cc1ccc(-c2cc3nc(N)n(C)c(=O)c3s2)cc1			> 25		> 6.2	
Cc1ccc(-c2cc3nc(C(C)(C)C)[nH]c(=O)c3s2)cc1						IC50 [9]: > 100 µM
Cc1ccc(-c2cc3nc(NC4CCC4)[nH]c(=O)c3s2)cc1.Cl						IC50 [9]: > 100 µM; solubility at 10 min [10]: 1.4 µM; chromatographic logD [11]: 3.16; Papp at 4 h [12]: 18.1 ×10⁻⁶ cm/s; Papp at 4 h [13]: 4.36 ×10⁻⁶ cm/s
C[C@H]1c2cccc(O)c2C(=O)C2=C(O)[C@]3(O)C(=O)C(C(N)=O)=C(O)[C@@H](N(C)C)[C@@H]3[C@@H](O)[C@@H]21 [DOXYCYCLINE ANHYDROUS]				4		
COc1cc(NC(C)CCCN)c2ncccc2c1 (stereo not drawn) [PRIMAQUINE]	> 50	7.26				
